Values joined by “and” are separate entries in the source; they are usually repeats but may differ in a detail not shown here. Identical values can stand only once.
Experiments:
Type in all cases: cell-based, corn (Zea mays)
[1] = tested on: corn seed excised explants; assay: 2,4-D in co-culture and co-culture duration 4 vs 5 days on corn explant transformation (Tables 34, 35); details: for # Normal Plants / Normal Plant Frequency (%) / Shoot Frequency (%) / Total # Shoots: 2,4-D (5 mg/L) in co-culture +; for average normal plant frequency (%): 2,4-D present in co-culture (5 mg/L)
Method: In a separate experiment, co-culture durations of 4 days and 5 days were evaluated in combination with the presence or absence of 5 mg/L 2,4-D in the co-culture medium. Corn seed excised explants were surface sterilized, rehydrated and inoculated with an Agrobacterium suspension as described in the preceding experiment. The Agrobacterium contained a chloroplast-targeted CP4 EPSPS gene under the control of a constitutive promoter flanked by T-DNA borders on the Ti plasmid. The inoculated explants were transferred to co-culture plates with or without 5 mg/L 2,4-D and co-cultured for 4 or 5 days prior to bud induction, extended bud induction, and regeneration as described in the preceding experiment.
Furthermore, co-culture for 4 days produced a higher normal plant frequency compared to co-culture for 5 days.
The shoot frequency was calculated as the number of inoculated explants producing shoots divided by the total number of inoculated explants. The normal plant frequency was calculated as the number of normal plants divided by the total number of inoculated explants.
(§1) The normal plant frequency was calculated as the number of normal plants divided by the total number of inoculated explants.

[2] = tested on: corn seed excised explants; assay: 2,4-D in co-culture medium on corn explant transformation, 17 experiments (Table 32)
Method: Seventeen independent experiments were conducted to evaluate the effect of 2,4-D in the co-culture medium on corn explant transformation. Corn explants were surface sterilized, purified, rehydrated, inoculated with Agrobacterium, co-cultured, and subjected to bud induction, extended bud induction, and regeneration as described in Example 1, unless otherwise noted. Agrobacterium containing the same Ti plasmid as described in Example 9 was used for all experiments, except for experiments 13-17, in which two different bacterial origins of replication in the Ti-plasmid were evaluated in the presence or absence of 2,4-D in co-culture medium. In these cases, the Ti plasmids carried the same two expression cassettes flanked by T-DNA borders, one comprising the chloroplast-targeted CP4 EPSPS gene under the control of a constitutive promoter and the other comprising the uidA gene under the control of a similar constitutive promoter.
Table 32 provides a summary of results from treatments with and without 2,4-D in the co-culture medium from the 17 experiments. […] The increase in normal plant frequency ranged from 1.1 to 3.0-fold with an average increase of 1.8-fold.
as §1

corn explants = assay: Different cytokinins during bud induction on corn explant transformation (Table 30); details: for # Normal Shoot / Total # Shoot: 5,000 explants
Method: An experiment was conducted to evaluate the effect of using different cytokinins during bud induction on corn explant transformation. Corn explants were surface sterilized, purified, rehydrated, inoculated with Agrobacterium, co-cultured, and subjected to the bud induction (without the second extended bud induction step) and regeneration steps as described in Example 1, unless otherwise noted. Glyphosate was used as the selection agent.
In this experiment, bud induction using four cytokinins, 6-Benzylaminopurine (BAP), Zeatin, thidiazuron (TDZ) and 6-(γ,γ-dimethylallylamino)purine (2iP), was evaluated.
The shoot frequency was calculated as the number of inoculated explants producing shoots divided by the total number of inoculated explants. The normal shoot frequency was calculated as the number of normal shoots divided by the total number of inoculated explants.

[3] = tested on: corn seed excised explants; assay: Corn explant transformation: bud induction with different glyphosate concentrations, 28° C. vs 35° C. first week (Table 2)
Method: To evaluate the effect of elevated temperature during the initial bud induction step on transformation, two temperature treatments were evaluated using glyphosate for selection: 1) bud induction for two weeks at 28° C.; and 2) bud induction for one week at an elevated temperature of 35° C. followed by one week of bud induction at 28° C. The proceeding and subsequent steps for transformation of the corn explants in this experiment were generally performed as described in Example 1.
Following Agrobacterium inoculation and co-culture, corn explants were transferred to bud induction medium containing MS salts and B5 vitamins supplemented with 2 mg/L TDZ, 1 mg/L 2,4-D and different concentrations of glyphosate and cultured under the temperature conditions described above.
Total number shoots was calculated as the total number of shoots regenerated from inoculated explants, including both normal and chimeric shoots. The shoot frequency was calculated as the number of inoculated explants producing shoots divided by the total number of inoculated explants. […] The percentage normal shoots was calculated as the number of normal shoots divided by the total number of shoots. Normal shoot frequency was calculated as the number of normal shoots divided by the total number of inoculated explants.

[4] = cytokinin 10 mg/L in bud induction
[5] = glyphosate 12.5 μM, 1st week bud induction 28° C.
[6] = glyphosate 12.5 μM, 1st week bud induction 35° C.
[7] = glyphosate 25.0 μM, 1st week bud induction 28° C.
[8] = glyphosate 25.0 μM, 1st week bud induction 35° C.
[9] = glyphosate 37.5 μM, 1st week bud induction 28° C.
[10] = glyphosate 37.5 μM, 1st week bud induction 35° C.
[11] = glyphosate 50.0 μM, 1st week bud induction 28° C.
[12] = glyphosate 50.0 μM, 1st week bud induction 35° C.
[13] = cytokinin 2 mg/L in bud induction

Compound: O=C(O)COc1ccc(Cl)cc1Cl [2,4-D, 2,4-dichlorophenoxyacetic acid]
- # Normal Plants ([1]; co-culture duration 4 days): 19 and 10
- Normal Plant Frequency (%) ([1]; co-culture duration 4 days): 0.8% and 0.9%
- Shoot Frequency (%) ([1]; co-culture duration 4 days): 1.5% and 1.1%
- Total # Shoots ([1]; co-culture duration 4 days): 35 and 21
- # Normal Plants ([1]; co-culture duration 5 days): 4
- Normal Plant Frequency (%) ([1]; co-culture duration 5 days): 0.5%
- Shoot Frequency (%) ([1]; co-culture duration 5 days): 1.1%
- Total # Shoots ([1]; co-culture duration 5 days): 9
- average normal plant frequency (%) ([1]; duration 4 days): 0.85%
- average normal plant frequency (%) ([1]; duration 5 days): 0.5%
- average normal plant frequency ([1]; 2,4-D present in co-culture medium (5 mg/L), 4 and 5 days): 0.73%
- Normal Plant Frequency (%) With 2,4-D (5 mg/L) ([2]; 2,4-D 5 mg/L in co-culture medium, individual experiments 1-17, normal plants / inoculated explants): 1.10% and 1.24% and 1.48% and 0.20% and 0.60% and 2.40% and 1.70% (2×) and 4.20% and 1.50% and 0.40% (2×) and 0.70% and 0.80% and 1.40% and 1.00% and 1.56%
- Normal Plant Frequency (%) With 2,4-D (5 mg/L), OVERALL ([2]; 2,4-D 5 mg/L in co-culture medium, overall of 17 experiments): 1.32%
- average increase in normal plant frequency on removal of 2,4-D from the co-culture medium ([2]; 17 experiments): 1.8 fold

Compound: CC(C)=CCNc1ncnc2nc[nH]c12 [2iP, 6-(γ,γ-dimethylallylamino)purine]
- Normal Shoot Frequency (%) (corn explants; [4]): 0.06%
- Shoot Frequency (%) (corn explants; [4]): 0.14%
- # Normal Shoot (corn explants; [4]): 3
- Total # Shoot (corn explants; [4]): 7

Compound: c1ccc(CNc2ncnc3nc[nH]c23)cc1 [BAP, 6-Benzylaminopurine]
- Normal Shoot Frequency (%) (corn explants; [4]): 1.56%
- Shoot Frequency (%) (corn explants; [4]): 5.80%
- # Normal Shoot (corn explants; [4]): 78
- Total # Shoot (corn explants; [4]): 290
- bud induction (corn explants; other studies, 1-8 mg/L BAP): bud induction was also observed

Compound: O=C(O)CNCP(=O)(O)O [Glyphosate, glyphosate]
- Normal Shoot Frequency (%) [3, 5]: 0.36%
- Normal Shoots (%) [3, 5]: 10.23%
- Shoot Frequency (%) [3, 5]: 3.52%
- Total # Normal Shoots [3, 5]: 9
- Total # Shoots [3, 5]: 88
- Normal Shoot Frequency (%) [3, 6]: 1.12%
- Normal Shoots (%) [3, 6]: 14.43%
- Shoot Frequency (%) [3, 6]: 7.76%
- Total # Normal Shoots [3, 6]: 28
- Total # Shoots [3, 6]: 194
- Normal Shoot Frequency (%) [3, 7]: 0.28%
- Normal Shoots (%) [3, 7]: 31.82%
- Shoot Frequency (%) [3, 7]: 0.88%
- Total # Normal Shoots [3, 7]: 7
- Total # Shoots [3, 7]: 22
- Normal Shoot Frequency (%) [3, 8]: 1.84%
- Normal Shoots (%) [3, 8]: 20.91%
- Shoot Frequency (%) [3, 8]: 8.8%
- Total # Normal Shoots [3, 8]: 46
- Total # Shoots [3, 8]: 220
- Normal Shoot Frequency (%) [3, 9]: 0.2%
- Normal Shoots (%) [3, 9]: 83.33%
- Shoot Frequency (%) [3, 9]: 0.24%
- Total # Normal Shoots [3, 9]: 5
- Total # Shoots [3, 9]: 6
- Normal Shoot Frequency (%) [3, 10]: 1.36%
- Normal Shoots (%) [3, 10]: 22.82%
- Shoot Frequency (%) [3, 10]: 5.96%
- Total # Normal Shoots [3, 10]: 34
- Total # Shoots [3, 10]: 149
- Normal Shoot Frequency (%) [3, 11]: 0.16%
- Normal Shoots (%) [3, 11]: 66.67%
- Shoot Frequency (%) [3, 11]: 0.24%
- Total # Normal Shoots [3, 11]: 4
- Total # Shoots [3, 11]: 6
- Normal Shoot Frequency (%) [3, 12]: 1.8%
- Normal Shoots (%) [3, 12]: 32.61%
- Shoot Frequency (%) [3, 12]: 5.52%
- Total # Normal Shoots [3, 12]: 45
- Total # Shoots [3, 12]: 138

Compound: O=C(Nc1ccccc1)Nc1cnns1 [TDZ, thidiazuron]
- Normal Shoot Frequency (%) (corn explants; [13]): 1.70%
- Shoot Frequency (%) (corn explants; [13]): 8.88%
- # Normal Shoot (corn explants; [13]): 85
- Total # Shoot (corn explants; [13]): 444

Compound: C/C(=C\CNc1ncnc2[nH]cnc12)CO [Zeatin]
- Normal Shoot Frequency (%) (corn explants; [13]): 0.06%
- Shoot Frequency (%) (corn explants; [13]): 0.20%
- # Normal Shoot (corn explants; [13]): 3
- Total # Shoot (corn explants; [13]): 10

Reference: patent publication US20240301435A1, “COMPOSITIONS AND METHODS FOR TRANSFORMATION OF MONOCOT SEED EXCISED EMBRYO EXPLANTS” (Monsanto Technology LLC, priority 2021, published 2024)
